Results taken from ChEMBL document CHEMBL1144455, “A small molecule-kinase interaction map for clinical kinase inhibitors” (Nat Biotechnol, 2005).

Key:
[1] = biological target: T1, Serine/threonine-protein kinase 17B (Homo sapiens, UniProt O94768)
T1 sequence (O94768 whole entry): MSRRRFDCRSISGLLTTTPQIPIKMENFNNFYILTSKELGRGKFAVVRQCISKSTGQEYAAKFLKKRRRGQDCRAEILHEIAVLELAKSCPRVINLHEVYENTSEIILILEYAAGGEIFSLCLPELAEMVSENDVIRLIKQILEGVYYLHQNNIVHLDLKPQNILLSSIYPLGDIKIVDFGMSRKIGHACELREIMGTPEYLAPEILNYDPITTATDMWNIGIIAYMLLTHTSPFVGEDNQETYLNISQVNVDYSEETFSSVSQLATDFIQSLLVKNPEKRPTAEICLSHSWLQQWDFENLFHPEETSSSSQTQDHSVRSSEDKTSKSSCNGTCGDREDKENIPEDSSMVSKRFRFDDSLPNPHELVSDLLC

[2] = biological target: Dual specificity protein kinase CLK3 (Homo sapiens, UniProt P49761)
Sequence of Dual specificity protein kinase CLK3 (P49761 whole entry): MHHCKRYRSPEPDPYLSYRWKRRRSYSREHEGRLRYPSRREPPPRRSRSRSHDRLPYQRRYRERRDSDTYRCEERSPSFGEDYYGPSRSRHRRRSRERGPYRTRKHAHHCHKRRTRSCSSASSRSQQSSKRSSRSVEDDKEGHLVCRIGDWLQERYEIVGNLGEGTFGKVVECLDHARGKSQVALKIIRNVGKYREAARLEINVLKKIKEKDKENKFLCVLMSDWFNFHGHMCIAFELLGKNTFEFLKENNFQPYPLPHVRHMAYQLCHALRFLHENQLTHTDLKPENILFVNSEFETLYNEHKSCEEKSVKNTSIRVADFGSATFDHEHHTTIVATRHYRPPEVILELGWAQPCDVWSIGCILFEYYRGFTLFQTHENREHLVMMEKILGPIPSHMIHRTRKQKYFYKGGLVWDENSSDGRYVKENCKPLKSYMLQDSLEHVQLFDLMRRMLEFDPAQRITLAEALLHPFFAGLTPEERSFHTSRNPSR

[3] = biological target: Ribosomal protein S6 kinase alpha-5 (Homo sapiens, UniProt O75582)
[4] = biological target: Calcium/calmodulin-dependent protein kinase type II subunit alpha (Homo sapiens, UniProt Q9UQM7)
Sequence of Calcium/calmodulin-dependent protein kinase type II subunit alpha (Q9UQM7 whole entry): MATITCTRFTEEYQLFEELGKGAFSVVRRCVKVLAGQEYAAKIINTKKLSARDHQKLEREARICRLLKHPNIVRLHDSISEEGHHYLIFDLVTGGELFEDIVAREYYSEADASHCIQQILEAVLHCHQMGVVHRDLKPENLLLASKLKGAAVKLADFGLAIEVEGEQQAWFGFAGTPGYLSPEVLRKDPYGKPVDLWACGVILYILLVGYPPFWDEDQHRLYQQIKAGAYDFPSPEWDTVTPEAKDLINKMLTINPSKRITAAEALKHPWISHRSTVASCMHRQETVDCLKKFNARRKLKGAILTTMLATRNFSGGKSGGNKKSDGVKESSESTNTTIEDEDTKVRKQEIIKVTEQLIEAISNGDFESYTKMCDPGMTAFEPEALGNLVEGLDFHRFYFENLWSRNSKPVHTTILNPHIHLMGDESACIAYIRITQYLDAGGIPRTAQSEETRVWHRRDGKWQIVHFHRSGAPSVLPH

[5] = biological target: Death-associated protein kinase 2 (Homo sapiens, UniProt Q9UIK4)
[6] = biological target: Cyclin-dependent kinase 2 (Homo sapiens, UniProt P24941)
[7] = biological target: Fibroblast growth factor receptor 3 (Homo sapiens, UniProt P22607)
Sequence of Fibroblast growth factor receptor 3 (P22607 whole entry): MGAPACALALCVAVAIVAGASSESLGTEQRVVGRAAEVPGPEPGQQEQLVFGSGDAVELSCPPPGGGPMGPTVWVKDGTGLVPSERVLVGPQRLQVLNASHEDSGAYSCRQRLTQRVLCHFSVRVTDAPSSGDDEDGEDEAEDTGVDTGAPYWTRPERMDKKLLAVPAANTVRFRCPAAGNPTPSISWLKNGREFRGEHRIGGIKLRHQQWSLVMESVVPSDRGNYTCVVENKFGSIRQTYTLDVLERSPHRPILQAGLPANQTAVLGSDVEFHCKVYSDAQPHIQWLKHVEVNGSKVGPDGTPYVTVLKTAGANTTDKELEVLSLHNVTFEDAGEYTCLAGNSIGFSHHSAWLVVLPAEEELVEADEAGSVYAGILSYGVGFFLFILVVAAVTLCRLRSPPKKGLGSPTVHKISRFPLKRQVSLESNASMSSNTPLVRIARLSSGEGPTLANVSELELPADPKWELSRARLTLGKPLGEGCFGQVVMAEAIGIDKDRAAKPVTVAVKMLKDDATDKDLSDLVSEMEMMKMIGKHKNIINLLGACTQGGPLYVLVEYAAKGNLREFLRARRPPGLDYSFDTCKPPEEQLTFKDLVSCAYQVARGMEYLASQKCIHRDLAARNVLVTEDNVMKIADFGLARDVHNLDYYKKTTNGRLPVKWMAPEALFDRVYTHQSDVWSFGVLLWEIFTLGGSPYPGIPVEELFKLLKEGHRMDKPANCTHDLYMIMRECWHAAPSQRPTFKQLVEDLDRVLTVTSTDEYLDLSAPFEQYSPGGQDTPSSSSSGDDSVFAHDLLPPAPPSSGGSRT

[8] = biological target: Tyrosine-protein kinase JAK2 (Homo sapiens, UniProt O60674)
[9] = biological target: Phosphorylase b kinase gamma catalytic chain, skeletal muscle/heart isoform (Homo sapiens, UniProt Q16816)
Sequence of Phosphorylase b kinase gamma catalytic chain, skeletal muscle/heart isoform (Q16816 whole entry, canonical isoform): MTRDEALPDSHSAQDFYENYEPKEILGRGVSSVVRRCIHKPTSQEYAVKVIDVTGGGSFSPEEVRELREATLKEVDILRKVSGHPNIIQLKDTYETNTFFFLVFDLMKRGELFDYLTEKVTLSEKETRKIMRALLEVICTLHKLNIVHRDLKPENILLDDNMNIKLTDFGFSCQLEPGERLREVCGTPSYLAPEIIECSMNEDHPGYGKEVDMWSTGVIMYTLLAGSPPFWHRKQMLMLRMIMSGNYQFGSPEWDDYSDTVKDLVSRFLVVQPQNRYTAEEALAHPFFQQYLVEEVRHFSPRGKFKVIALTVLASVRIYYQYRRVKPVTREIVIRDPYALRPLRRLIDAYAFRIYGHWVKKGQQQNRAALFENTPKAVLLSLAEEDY

[10] = biological target: Serine/threonine-protein kinase 38-like (Homo sapiens, UniProt Q9Y2H1)
[11] = biological target: Mast/stem cell growth factor receptor Kit (Homo sapiens, UniProt P10721)
Sequence of Mast/stem cell growth factor receptor Kit (P10721 whole entry): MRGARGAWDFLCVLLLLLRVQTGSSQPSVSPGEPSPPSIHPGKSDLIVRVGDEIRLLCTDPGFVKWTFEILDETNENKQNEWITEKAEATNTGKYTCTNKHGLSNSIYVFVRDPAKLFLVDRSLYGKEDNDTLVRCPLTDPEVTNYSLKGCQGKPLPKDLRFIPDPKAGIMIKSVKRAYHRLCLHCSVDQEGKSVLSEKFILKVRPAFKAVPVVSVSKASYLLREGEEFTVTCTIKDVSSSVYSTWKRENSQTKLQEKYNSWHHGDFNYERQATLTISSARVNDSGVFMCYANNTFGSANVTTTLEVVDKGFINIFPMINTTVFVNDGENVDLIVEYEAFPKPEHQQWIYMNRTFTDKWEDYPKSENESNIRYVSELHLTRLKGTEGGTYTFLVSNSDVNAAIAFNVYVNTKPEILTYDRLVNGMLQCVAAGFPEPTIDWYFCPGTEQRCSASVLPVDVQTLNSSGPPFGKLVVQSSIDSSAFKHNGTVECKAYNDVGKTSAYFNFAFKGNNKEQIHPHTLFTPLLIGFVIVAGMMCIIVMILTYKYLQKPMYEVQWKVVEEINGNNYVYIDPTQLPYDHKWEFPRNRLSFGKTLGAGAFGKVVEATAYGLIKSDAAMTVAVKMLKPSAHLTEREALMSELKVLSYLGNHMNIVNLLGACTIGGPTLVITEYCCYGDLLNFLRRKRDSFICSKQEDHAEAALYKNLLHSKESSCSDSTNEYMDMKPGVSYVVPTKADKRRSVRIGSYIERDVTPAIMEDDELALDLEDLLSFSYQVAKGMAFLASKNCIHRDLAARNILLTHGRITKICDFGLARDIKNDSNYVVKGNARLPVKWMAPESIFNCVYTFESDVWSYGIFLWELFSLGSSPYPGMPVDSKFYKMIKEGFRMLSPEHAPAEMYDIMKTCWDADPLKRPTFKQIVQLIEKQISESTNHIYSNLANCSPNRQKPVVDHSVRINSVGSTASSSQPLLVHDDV

[12] = biological target: T2, Serine/threonine-protein kinase Nek2 (Homo sapiens, UniProt P51955)
T2 sequence (P51955 whole entry): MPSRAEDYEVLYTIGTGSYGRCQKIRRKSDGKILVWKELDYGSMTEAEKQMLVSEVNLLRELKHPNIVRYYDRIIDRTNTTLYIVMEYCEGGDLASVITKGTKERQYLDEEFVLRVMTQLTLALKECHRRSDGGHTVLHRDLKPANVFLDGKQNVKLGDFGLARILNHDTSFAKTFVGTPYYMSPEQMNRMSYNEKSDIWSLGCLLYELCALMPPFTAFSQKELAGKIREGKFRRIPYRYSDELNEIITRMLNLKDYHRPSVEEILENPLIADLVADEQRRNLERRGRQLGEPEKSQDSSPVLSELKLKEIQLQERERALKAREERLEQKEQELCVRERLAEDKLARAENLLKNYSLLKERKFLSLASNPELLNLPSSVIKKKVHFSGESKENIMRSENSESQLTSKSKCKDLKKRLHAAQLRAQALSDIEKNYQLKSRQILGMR

[13] = biological target: 5'-AMP-activated protein kinase catalytic subunit alpha-1 (Homo sapiens, UniProt Q13131)
[14] = biological target: Tyrosine-protein kinase Yes (Homo sapiens, UniProt P07947)
Sequence of Tyrosine-protein kinase Yes (P07947 whole entry): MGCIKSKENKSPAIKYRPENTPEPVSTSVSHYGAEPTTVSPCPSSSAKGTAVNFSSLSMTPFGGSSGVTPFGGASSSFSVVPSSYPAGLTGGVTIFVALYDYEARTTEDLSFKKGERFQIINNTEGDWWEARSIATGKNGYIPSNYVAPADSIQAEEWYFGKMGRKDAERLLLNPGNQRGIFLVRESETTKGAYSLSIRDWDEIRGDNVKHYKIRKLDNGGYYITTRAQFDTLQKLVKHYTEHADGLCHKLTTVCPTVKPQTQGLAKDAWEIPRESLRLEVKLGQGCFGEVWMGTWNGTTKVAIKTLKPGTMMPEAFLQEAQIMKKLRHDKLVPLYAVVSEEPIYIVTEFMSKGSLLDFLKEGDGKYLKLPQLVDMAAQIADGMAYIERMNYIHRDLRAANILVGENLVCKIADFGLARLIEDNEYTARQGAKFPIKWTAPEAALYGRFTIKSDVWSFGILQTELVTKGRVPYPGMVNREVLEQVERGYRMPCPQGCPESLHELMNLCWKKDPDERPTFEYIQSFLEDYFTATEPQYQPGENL

[15] = biological target: Calcium/calmodulin-dependent protein kinase kinase 2 (Homo sapiens, UniProt Q96RR4)
Sequence of Calcium/calmodulin-dependent protein kinase kinase 2 (Q96RR4 whole entry): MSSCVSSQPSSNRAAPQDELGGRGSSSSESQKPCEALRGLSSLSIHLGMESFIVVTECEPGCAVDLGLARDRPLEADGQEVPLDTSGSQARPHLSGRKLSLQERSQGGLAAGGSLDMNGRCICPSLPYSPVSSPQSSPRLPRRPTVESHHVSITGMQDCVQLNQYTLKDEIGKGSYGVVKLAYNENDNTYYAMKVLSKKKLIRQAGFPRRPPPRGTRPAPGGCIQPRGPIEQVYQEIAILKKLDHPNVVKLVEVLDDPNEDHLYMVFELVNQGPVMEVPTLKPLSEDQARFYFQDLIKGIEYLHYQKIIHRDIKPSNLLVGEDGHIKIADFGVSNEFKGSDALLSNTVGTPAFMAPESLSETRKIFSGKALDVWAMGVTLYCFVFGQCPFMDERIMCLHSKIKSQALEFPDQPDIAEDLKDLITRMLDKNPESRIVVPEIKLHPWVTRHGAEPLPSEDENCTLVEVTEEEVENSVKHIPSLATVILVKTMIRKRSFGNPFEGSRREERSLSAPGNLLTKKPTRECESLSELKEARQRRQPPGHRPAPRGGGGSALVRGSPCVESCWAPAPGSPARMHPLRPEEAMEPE

[16] = biological target: Receptor tyrosine-protein kinase erbB-2 (Homo sapiens, UniProt P04626)
[17] = biological target: AP2-associated protein kinase 1 (Homo sapiens, UniProt Q2M2I8)
[18] = biological target: T3, Ephrin type-A receptor 6 (Homo sapiens, UniProt Q9UF33)
T3 sequence (Q9UF33 whole entry): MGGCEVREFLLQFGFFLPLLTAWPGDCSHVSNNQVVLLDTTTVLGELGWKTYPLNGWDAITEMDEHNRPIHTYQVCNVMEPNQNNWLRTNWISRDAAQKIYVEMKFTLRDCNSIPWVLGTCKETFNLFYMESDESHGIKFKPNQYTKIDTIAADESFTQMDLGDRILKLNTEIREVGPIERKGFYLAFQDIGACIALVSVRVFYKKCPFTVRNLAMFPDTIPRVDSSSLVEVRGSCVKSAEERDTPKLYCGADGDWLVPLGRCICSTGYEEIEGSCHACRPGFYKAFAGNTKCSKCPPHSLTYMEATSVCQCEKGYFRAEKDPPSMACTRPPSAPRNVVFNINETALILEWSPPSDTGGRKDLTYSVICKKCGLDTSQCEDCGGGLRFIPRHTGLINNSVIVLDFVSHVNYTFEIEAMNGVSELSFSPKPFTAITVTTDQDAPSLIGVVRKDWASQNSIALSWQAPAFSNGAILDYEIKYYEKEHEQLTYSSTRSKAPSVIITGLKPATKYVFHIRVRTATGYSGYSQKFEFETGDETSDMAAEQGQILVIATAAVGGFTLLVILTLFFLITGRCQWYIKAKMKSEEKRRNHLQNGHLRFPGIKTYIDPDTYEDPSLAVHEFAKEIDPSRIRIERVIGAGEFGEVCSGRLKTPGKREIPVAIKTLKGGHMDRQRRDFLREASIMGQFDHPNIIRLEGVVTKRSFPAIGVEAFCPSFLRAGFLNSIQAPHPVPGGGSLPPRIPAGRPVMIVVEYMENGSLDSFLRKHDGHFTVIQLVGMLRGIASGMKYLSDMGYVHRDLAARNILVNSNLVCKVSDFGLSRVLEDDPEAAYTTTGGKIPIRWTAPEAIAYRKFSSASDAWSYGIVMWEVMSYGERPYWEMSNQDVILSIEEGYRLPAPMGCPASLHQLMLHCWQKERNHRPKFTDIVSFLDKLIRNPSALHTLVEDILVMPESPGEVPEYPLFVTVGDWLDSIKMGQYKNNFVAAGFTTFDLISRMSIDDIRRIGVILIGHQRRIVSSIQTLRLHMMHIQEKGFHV

[19] = biological target: Receptor-interacting serine/threonine-protein kinase 2 (Homo sapiens, UniProt O43353)
Sequence of Receptor-interacting serine/threonine-protein kinase 2 (O43353 whole entry): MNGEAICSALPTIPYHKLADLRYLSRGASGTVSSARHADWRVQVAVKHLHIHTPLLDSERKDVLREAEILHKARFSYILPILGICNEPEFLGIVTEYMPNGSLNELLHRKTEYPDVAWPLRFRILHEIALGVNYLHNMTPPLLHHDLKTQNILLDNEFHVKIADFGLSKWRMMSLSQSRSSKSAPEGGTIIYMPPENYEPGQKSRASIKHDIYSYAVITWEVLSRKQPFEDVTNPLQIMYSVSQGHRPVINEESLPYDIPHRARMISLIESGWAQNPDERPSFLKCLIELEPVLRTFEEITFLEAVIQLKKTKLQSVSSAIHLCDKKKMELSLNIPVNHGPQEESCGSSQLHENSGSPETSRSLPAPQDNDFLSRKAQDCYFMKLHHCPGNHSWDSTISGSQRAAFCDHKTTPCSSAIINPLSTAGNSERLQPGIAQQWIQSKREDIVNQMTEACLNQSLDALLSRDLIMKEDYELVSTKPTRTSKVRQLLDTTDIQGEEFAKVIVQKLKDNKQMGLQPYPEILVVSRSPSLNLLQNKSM

[20] = biological target: Tyrosine-protein kinase ABL1 (Homo sapiens, UniProt P00519, T315I)
[21] = biological target: Proto-oncogene tyrosine-protein kinase Src (Homo sapiens, UniProt P12931)

Compound | Kd [1] | Kd [2] | Kd [3] | Kd [4] | Kd [5] | Kd [6] | Kd [7] | Kd [8] | Kd [9] | Kd [10] | Kd [11] | Kd [12] | Kd [13] | Kd [14] | Kd [15] | Kd [16] | Kd [17] | Kd [18] | Kd [19] | Kd [20] | further results
C#Cc1cccc(Nc2ncnc3cc(OCCOC)c(OCCOC)cc23)c1 [ERLOTINIB] | Not Active | Not Active | Not Active | Not Active | Not Active | Not Active | Not Active | Not Active | Not Active | Not Active | Not Active | Not Active | Not Active | Not Active | Not Active | – | – | – | – | – | –
Cc1ccc(NC(=O)c2ccc(CN3CCN(C)CC3)cc2)cc1Nc1nccc(-c2cccnc2)n1 [IMATINIB] | Not Active | – | Not Active | Not Active | Not Active | – | Not Active | Not Active | Not Active | Not Active | – | Not Active | Not Active | Not Active | Not Active | Not Active | Not Active | Not Active | Not Active | – | –
O=c1ncn2nc(Sc3ccc(F)cc3F)ccc2c1-c1c(Cl)cccc1Cl [NEFLAMAPIMOD] | Not Active | Not Active | Not Active | Not Active | Not Active | Not Active | Not Active | Not Active | Not Active | Not Active | Not Active | Not Active | Not Active | – | Not Active | Not Active | Not Active | Not Active | Not Active | Not Active | –
CCOc1cc2ncc(C#N)c(Nc3ccc(F)c(Cl)c3)c2cc1NC(=O)/C=C/CN(C)C [PELITINIB] | – | – | Not Active | Not Active | Not Active | Not Active | Not Active | – | – | – | Not Active | – | Not Active | – | – | – | – | – | Not Active | – | Kd ([21]; read-out: Kd): 0.12 µM
Oc1ccc(-c2nc(-c3ccc(F)cc3)c(-c3ccncc3)[nH]2)cc1 [SB-202190] | Not Active | Not Active | Not Active | Not Active | Not Active | Not Active | Not Active | Not Active | Not Active | Not Active | Not Active | Not Active | Not Active | Not Active | Not Active | Not Active | Not Active | Not Active | – | Not Active | Kd [21]: Not Active
C[S+]([O-])c1ccc(-c2nc(-c3ccc(F)cc3)c(-c3ccncc3)[nH]2)cc1 (stereo not drawn) [SB-203580] | Not Active | Not Active | Not Active | Not Active | Not Active | Not Active | Not Active | Not Active | Not Active | Not Active | Not Active | Not Active | Not Active | Not Active | Not Active | Not Active | Not Active | Not Active | – | Not Active | Kd [21]: Not Active
CC[C@H](CO)Nc1nc(NCc2ccccc2)c2ncn(C(C)C)c2n1 [SELICICLIB] | Not Active | Not Active | Not Active | Not Active | Not Active | – | Not Active | Not Active | Not Active | Not Active | Not Active | Not Active | Not Active | Not Active | Not Active | Not Active | Not Active | Not Active | Not Active | Not Active | Kd [21]: Not Active
Oc1c2ccccc2c2c3c(cccc13)N=N2 [SP-600125] | Not Active | Not Active | – | Not Active | – | – | Not Active | Not Active | Not Active | – | Not Active | Not Active | Not Active | Not Active | – | Not Active | – | Not Active | Not Active | Not Active | Kd [21]: Not Active
COc1cc2c(N3CCN(C(=O)Nc4ccc(OC(C)C)cc4)CC3)ncnc2cc1OCCCN1CCCCC1 [TANDUTINIB] | Not Active | – | Not Active | Not Active | Not Active | Not Active | Not Active | Not Active | Not Active | Not Active | – | Not Active | Not Active | Not Active | Not Active | Not Active | Not Active | Not Active | Not Active | Not Active | Kd [21]: Not Active
